From patent publication US20140039044A1, “Hydroxylated Polymethoxyflavone Compositions” (WLLGEN, INC., priority 2006, published 2014) come the findings set out here.

Common to all, as to format: cell-based, human
For assay [1], the system named is intracellular Ca^2+ stores in MCF-7 cells. Description: Ca2+ mobilization from endoplasmic reticulum stores with thapsigargin (fura-2). The note with it: for Decrease of the Ca^2+ mobilization response: compound 4: 6.25 μM, compound 5: 12.5 μM. The method, then:
(§1) To evaluate Ca^2+ influx from the extracellular space, the Mn^2+ entry rate, as a reporter of Ca^2+ influx, was measured. The images were recorded at excitation of 360 nm (the fura-2 isosbestic point) and 2 mM of extracellular Mn^2+. The rates of Ca^2+ entry were estimated from the slope of the liner portion of curves of the fura-2 fluorescence quench by Mn^2+. To evaluate Ca^2+ release from the intracellular stores, cells grown on coverslips were placed in D-PBS, and the mobilizer of the endoplasmic reticulum Ca^2+-stores, thapsigargin (1 μM), was added after recording the basal [Ca^2+]i. The peak values of the [Ca^2+]i increase, indicating the filling level of the Ca^2+-stores, were measured with fura-2.
(§2) To investigate mechanism of a sustained increase in [Ca^2+]i after treatment with PMFs, the rates of the background Ca^2+ influx from the extracellular space and the magnitudes of Ca^2+ release from the endoplasmic reticulum stores with thapsigargin were measured in the treated cells using methods described above.
(§3) In FIG. 11A through 11D, the concentration for each PMF was as follows: compound 4: 6.25 μM; compound 5: 12.5 μM; compound 6: 25 μM; and compound 7: 25 μM. […] The Ca^2+ entry rates (C, D) are presented as tangents of the linear portions of the fura-2 quench curves. Data in panel C are presented as means±SE for control cells or cells treated with PMFs 3 days (black bars) or 6 days (gray bars). […] Mn^2+ or thapsigargin was added after recording the basal level of fluorescence or basal [Ca^2+]i for 30-60 s.
In general terms: A change in cytosolic calcium serves as a functional read-out for many receptors and channels.

In assay [2] the test system is Ca^2+ influx in MCF-7 cells. Description: Ca2+ influx (Mn2+ entry rate, fura-2 quench). The conditions noted are these: for Increase of Ca^2+ influx (Ca^2+ entry rates): compound 4: 6.25 μM, compound 5: 12.5 μM. On the procedure: as §1, §2, §3
A further assay has as its system AGS cells. In words: Cell cycle distribution by flow cytometry. The note with it: 24 h; for Cell Cycle Distribution G0/G1 / Cell Cycle Distribution G2/M / Cell Cycle Distribution S: Table 11. Put shortly: (§4)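 Human cancer cells (2×10^5 per dish) exposed 24 h to compound at 5–100 μM, or DMSO. Cells ethanol-fixed at −20° C overnight, RNase/Triton-treated at 37° C for 30 min, then stained with propidium iodide. DNA content read by FACScan flow cytometry to give phase distribution.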

A further assay relates to COLO205 cells. Description: Cell cycle distribution by flow cytometry. The note with it: 24 h; for Cell Cycle Distribution G0/G1 / Cell Cycle Distribution G2/M / Cell Cycle Distribution S: COLO205 cells, Table 12. Put shortly:
as §4

The test system of assay [3] is HT-29 cells. Description: Apoptotic ratio by propidium iodide flow cytometry (AC50). The conditions noted are these: Homo sapiens, read-out: Apoptosis-inducing AC50. Put shortly:
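HT-29 cells (2×10^5) were treated with compound for 24 h, then fixed in ice-cold ethanol overnight and treated with Triton X-100/RNase at 37 °C for 30 min. They were stained with propidium iodide (50 μg/mL solution) on ice for 30 min. The apoptotic fraction was measured from PI-DNA fluorescence by flow cytometry, and AC50 was reported.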
In general terms: A flow cytometer gives signals particle by particle.

Another assay concerns HL-60 cells. In words: Cell cycle distribution by flow cytometry. The note with it: 24 h; for Cell Cycle Distribution G0/G1 / Cell Cycle Distribution G2/M / Cell Cycle Distribution S: Table 10. Put shortly: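 HL-60 cells were treated for 24 h with compound at 5, 10, 25, 50 or 100 μM, or with DMSO. Cells were then ethanol-fixed, treated with Triton X-100/RNase and stained with propidium iodide. DNA content was measured by flow cytometry to give cell-cycle phase distribution.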

For assay [4], the system named is HT-29 cells. Description: Cell cycle distribution by flow cytometry. The conditions noted are these: for Cell Cycle Distribution G0/G1 / Cell Cycle Distribution G2/M / Cell Cycle Distribution S: 24 h. Put shortly: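 Cells were treated 24 h with compound at 5, 10, 25, 50 or 100 μM, or with DMSO. They were then ethanol-fixed, RNase-treated and stained with propidium iodide. DNA content was measured by FACScan flow cytometry to give cell-cycle phase distribution.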

Consider `COc1ccc(-c2cc(=O)c3c(OC)c(OC)c(OC)cc3o2)cc1O` [Compound 5, 3′-hydroxy-5,6,7,4′-tetramethoxyflavone], for which the “Decrease of the Ca^2+ mobilization response” value in assay [1] was 1.35 fold. Further, in assay [2], the “Increase of Ca^2+ influx (Ca^2+ entry rates)” value amounted to 1.6 fold.
In the case of `COc1ccc(-c2cc(=O)c3c(OC)c(OC)c(OC)cc3o2)cc1OC` [Compound 7, 5,6,7,3′,4′-pentamethoxyflavone, reference compound], in assay [1] (25 μM), the “Filling of the endoplasmic reticulum Ca^2+ stores, in words” value is on record as “did not affect the filling of the endoplasmic reticulum Ca^2+ stores”. Further, in assay [2] (25 μM), the “Ca^2+ influx, in words” value is reported as “did not significantly increase Ca^2+ influx”.
One may read the AC50 as the concentration giving half of the maximal activity seen. As to `COc1ccc(-c2oc3c(OC)c(OC)c(OC)c(O)c3c(=O)c2OC)cc1OC` [Compound C, 5-hydroxy-3,6,7,8,3′,4′-hexamethoxyflavone], in assay [1], the “Decrease of the Ca^2+ mobilization response” value was found to be 1.5 fold. Moreover, the “Cell Cycle Distribution G0/G1” value stood at 45.5 ± 1.06 with AGS cells (5 μM); 29.6 ± 1.77 in the assay with AGS cells (10 μM); 20.6 ± 0.42 in the assay with AGS cells (25 μM); 18.2 ± 0.42 in the assay with AGS cells (50 μM); 17.0 ± 0.07 in the assay with AGS cells (100 μM); 63.55 ± 0.99 in the assay with COLO205 cells (5 μM). For the same compound, the “Cell Cycle Distribution G0/G1” value in the assay with COLO205 cells (10 μM) came to 75.57 ± 0.83; with COLO205 cells (25 μM), 74.27 ± 0.83; in the assay with COLO205 cells (50 μM), 58.30 ± 0.57; in the assay with COLO205 cells (100 μM), 51.84 ± 0.31; with HL-60 cells (5 μM) it was 70.99 ± 0.49; in the assay with HL-60 cells (10 μM), 78.47 ± 0.64. In addition, the “Cell Cycle Distribution G0/G1” value in the assay on HL-60 cells (25 μM) amounted to 40.12 ± 0.64; in the assay on HL-60 cells (50 μM) it was 51.42 ± 1.13; in the assay on HL-60 cells (100 μM), 50.23 ± 1.91; in the assay on HT-29 cells [4] (5 μM) it was 65.24 ± 0.32; in the assay on HT-29 cells [4] (10 μM), 69.14 ± 0.14; with HT-29 cells [4] (25 μM), 80.09 ± 0.19. For the same compound, the “Cell Cycle Distribution G0/G1” value in the assay on HT-29 cells [4] (50 μM) worked out at 69.85 ± 0.66; in the assay with HT-29 cells [4] (100 μM) it was 77.48 ± 0.74. In addition, the “Cell Cycle Distribution G2/M” value was determined as 9.9 ± 0.07 in the assay on AGS cells (5 μM); 22.0 ± 0.78 in the assay on AGS cells (10 μM); 47.3 ± 1.13 in the assay on AGS cells (25 μM); 32.7 ± 0.57 in the assay with AGS cells (50 μM); 32.4 ± 0.78 in the assay with AGS cells (100 μM); 6.16 ± 0.37 with COLO205 cells (5 μM). The “Cell Cycle Distribution G2/M” value is given as 6.37 ± 1.50 in the assay on COLO205 cells (10 μM); 0.43 ± 0.20 in the assay with COLO205 cells (25 μM); 16.70 ± 0.59 in the assay on COLO205 cells (50 μM); 19.04 ± 0.39 with COLO205 cells (100 μM); 0.95 ± 0.35 in the assay on HL-60 cells (5 μM); 19.89 ± 1.06 with HL-60 cells (10 μM). The “Cell Cycle Distribution G2/M” value worked out at 20.37 ± 0.57 with HL-60 cells (25 μM); 11.64 ± 1.06 with HL-60 cells (50 μM); 18.74 ± 1.56 in the assay with HL-60 cells (100 μM); 7.62 ± 0.11 in the assay on HT-29 cells [4] (5 μM); 6.58 ± 0.18 in the assay on HT-29 cells [4] (10 μM); 4.39 ± 0.37 in the assay on HT-29 cells [4] (25 μM). The figures for the “Cell Cycle Distribution G2/M” value in the assay on HT-29 cells [4] (50 μM) and in the assay on HT-29 cells [4] (100 μM) were 5.91 ± 0.49 and 3.94 ± 1.32, respectively. For the same compound, the “Cell Cycle Distribution S” value in the assay on AGS cells (5 μM) is 45.2 ± 0.35; with AGS cells (10 μM), 26.1 ± 0.85; with AGS cells (25 μM), 31.3 ± 0.49; in the assay on AGS cells (50 μM) it was 50.1 ± 1.20; in the assay on AGS cells (100 μM) it was 52.0 ± 0.85; in the assay on COLO205 cells (5 μM) it was 30.29 ± 0.61. Besides, the “Cell Cycle Distribution S” value is given as 18.07 ± 0.67 with COLO205 cells (10 μM); 25.30 ± 0.63 in the assay on COLO205 cells (25 μM); 25.00 ± 1.16 in the assay on COLO205 cells (50 μM); 29.13 ± 0.70 in the assay on COLO205 cells (100 μM); 28.07 ± 0.99 in the assay with HL-60 cells (5 μM); 1.64 ± 0.42 in the assay with HL-60 cells (10 μM). Also, the “Cell Cycle Distribution S” value amounted to 39.51 ± 0.57 in the assay with HL-60 cells (25 μM); 36.94 ± 0.85 with HL-60 cells (50 μM); 31.03 ± 1.06 in the assay with HL-60 cells (100 μM); 27.15 ± 0.21 with HT-29 cells [4] (5 μM); 24.28 ± 0.32 with HT-29 cells [4] (10 μM); 15.54 ± 0.19 in the assay on HT-29 cells [4] (25 μM). The “Cell Cycle Distribution S” value is 24.25 ± 1.15 in the assay on HT-29 cells [4] (50 μM) and 18.59 ± 0.58 with HT-29 cells [4] (100 μM). In addition, the “Cell cycle arrest, in words” value with AGS cells (5-100 μM) is “decrease in G1 arrest accompanied by an increase in G2/M phase cell population”; with COLO205 cells (COLO 205 cells, 5-100 μM), “decrease in G1 arrest accompanied by an increase in G2/M phase cell population”; in the assay with HL-60 cells (25 μM), “decrease in G1 arrest was accompanied by an increase in G2/M phase cell population”; with HL-60 cells (25-100 μM), “significant G1 arrest”; in the assay with HT-29 cells [4] (5-100 μM, 24 h exposure), “significant accumulation of cells in G1 phase”. The concentration at half-maximal activity (AC50) in the assay on HT-29 cells [3] is > 100 µM. Besides, in assay [2], the “Increase of Ca^2+ influx (Ca^2+ entry rates)” value is 1.8 fold.
